Source: patent US20240018132A1, “5-HYDROXY-1,4-NAPHTHALENEDIONE FOR USE IN THE TREATMENT OF CANCER” (GODAVARI BIOREFINERIES LIMITED, priority 2020, published 2024)

Key:
Format in all cases: cell-based
[1] = test system: MDAMB231; assay: In vitro antiproliferative assay (MTT assay), breast cancer cell line; settings: Homo sapiens, MDA-MB-231, MTT assay, MDAMB231
How it was run: (§1)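 Growth inhibition determined by MTT (0.5 mg/ml, 4 h) following 48 h compound treatment of cells plated 24 h earlier at 37 °C, 5% CO2.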

[2] = test system: PC3; assay: In vitro antiproliferative assay (MTT assay), prostate cancer cell line; settings: Homo sapiens, PC-3, MTT assay, PC3
How it was run: as §1

[3] = test system: MCF7; assay: In vitro antiproliferative assay (MTT assay), MCF7; settings: Homo sapiens, second value of MDAMB231/MCF7 column
Description: MTT assay is a simple and sensitive assay where, metabolic reducing activity of the cells is measured. The increase of this activity in time is taken as a parameter of cell growth. If treatment with a drug impairs this increase, the action is a consequence of growth inhibition, cell killing or both. […] All cell lines were cultured in a 37° C. incubator with a 5% CO2 environment. Compounds were dissolved in DMSO with a concentration of 0.1M (stock solution). Cells were seeded into 96-well plates at suitable plating efficiency.
In the MTT procedure, the cells were plated in 96 well plates as per predetermined plating efficiency (Table1). The plates were then incubated for 24 hrs in 5% CO2 atmosphere at 37° C. Appropriate concentrations of the drugs were then added to the plate and further incubation was carried out for 48 hrs (in 5% CO2 atmosphere at 37° C.). The assay plate was then centrifuged twice at 3000 rpm for 3 mins and supernatant was then discarded. 100 ul of MTT solution (0.5 mg/ml) was then added to each well of the plate and it was further incubated for 4 hrs (in 5% CO2 atmosphere at 37° C.) Following 4 hr incubation, the plate was then centrifuged twice, and supernatant was aspirated off very carefully. 200 ul of DMSO was then added to each well to solubilize. MTT crystals and mixed well by shaking the plate. […]

Row | Compound | IC50 [1] [nM] | IC50 [2] [nM] | IC50 [3] [nM]
1 | O=C1C(Oc2ccc3c(c2)OCO3)=CC(=O)c2c(OCCCCN3CCOCC3)cccc21 [Formula 82] | 970 | 582 | 480
2 | O=C1C=C(Oc2ccc(F)c(F)c2)C(=O)c2c(OCCN3CCOCC3)cccc21 [Formula 83] | 860 | 721 | 660
